According to patent publication US20080171729A1, “Use Of A Steroid For Enhancement Of Skin Permeability” (Novartis AG, priority 2004, published 2008):

Assay: Skin penetration/permeation assay in static Franz-type diffusion cells, untreated or corticosteroid pre-treated split-thickness skin
Assay type: in vitro ADME, domestic pigs
Description: Three young, male castrated domestic pigs with body weights of approximately 15 kg are used as skin donors. The animals are obtained from a local breeder and maintained under standardized conditions (22±1°, 55±5% relative humidity, 10 changes of fresh air/hour, 12 hours day/12 hours night cycle). After a settling-in period of 7 days the pigs are treated topically on test areas on the dorsolateral back • with CS solutions in EtOH/propylene glycol (3+7, v/v) as a solvent, and • contra-laterally with solvent alone, twice daily for 5 days. HC (Sigma) at 1.0%, MOM (Sequoia Research Products) at 0.1% and CLO (Sigma) at 0.05% are used as CS. The CS-samples and solvent alone are applied in volumes of 50 μl to skin areas of 3.5×6.5 cm each. All three CS and solvent alone are applied to all animals. 16 hours after the last application the animals are killed and the treated skin samples are dissected. Full-thickness skin samples are dissected from vehicle- and CS-treated sites and cut into 0.4 mm split-thickness skin samples with a dermatome (Aesculap®). The samples include the epidermal layers and the superficial part of the dermis but no deep dermal layers and no subcutaneous fat. […] Schmook F B, Stütz A, Reinhardt J, Skin Pharmacol 1993; 6: 116-124. PBS/EtOH 3:1 is used as receptor phase. All experiments are performed at 32° in triplicates for 48 hours. Test compounds are applied to the epidermal side of the skin samples in their marketed formulations, i.e. Elidel® 1% cream (pimecrolimus) and Protopic® 0.1% ointment (tacrolimus), each in amounts of 300 mg. Samples of 100 μl are taken from the receptor phase at 5 time points during the 48-hours experiment and replaced by fresh receptor fluid. After addition of an internal standard (ASD732, see e.g. EP569337) the samples are directly analyzed by RPLC using MS-based detection. […] Specimens from the stripped skin are taken with a biopsy punch, weighed and then homogenized in 0.1 M sodium phosphate buffer, pH 7. Following addition of an internal standard (ASD732) and buffer of pH 10 to the homogenates, extraction is performed with tert-butyl methylether. Solvent from each extract obtained is evaporated, each residue obtained is redissolved and subjected to analysis by RPLC using MS-based detection. Receptor fluid samples are analyzed by RP-HPLC with MS detection in ESI positive mode (LC-MS/MS analysis). The MS/MS mode is used to increase selectivity. LC-MS/MS analysis is carried out with an Agilent 1100 Series Capillary LC System coupled to a Finnigan LCQ mass spectrometer. A Phenomenex Luna C18(2) column (3 μm, 100×2 mm) equipped with a precolumn is used and eluted isocratically with a flow rate of 100 μl/minute at 60°. The effluent is delivered unsplit to the ESI ion-source. Under the chromatographic conditions used, all compounds tested yield a strong sodium adduct. For MS/MS parent ions are selected. The quantification of the parent ions is based on the area ratio of the fragment ions to the fragment ion of the internal standard.

[1] = pre-treated skin compared with untreated skin

For `C=CC[C@@H]1/C=C(\C)C[C@H](C)C[C@H](OC)[C@H]2O[C@@](O)(C(=O)C(=O)N3CCCC[C@H]3C(=O)O[C@H](/C(C)=C/[C@@H]3CC[C@H](O)[C@H](OC)C3)[C@H](C)[C@@H](O)CC1=O)[C@H](C)C[C@@H]2OC` [tacrolimus], the “permeation rate of tacrolimus in comparison with pimecrolimus, times higher” value (from here on “permeation rate of tacrolimus”) (CLO-pretreated skin) was 3.5, the “permeation rate of tacrolimus” value (HC-pre-treated skin) was 5.9 and the “permeation rate of tacrolimus” value (MOM-pre-treated skin) was 7.1. For the same molecule, the “permeation rate increased by factors” value (corticosteroid pretreated samples (range over HC, MOM, CLO) compared with untreated skin) was 1.3-1.9, the “skin penetration (skin concentration) enhanced, in words” value [1] was “not significantly” and the “permeation rate of tacrolimus” value (untreated skin) was 11.2.

For `CC[C@@H]1/C=C(\C)C[C@H](C)C[C@H](OC)[C@H]2O[C@@](O)(C(=O)C(=O)N3CCCC[C@H]3C(=O)O[C@H](/C(C)=C/[C@@H]3CC[C@H](Cl)[C@H](OC)C3)[C@H](C)[C@@H](O)CC1=O)[C@H](C)C[C@@H]2OC` [pimecrolimus], the “permeation rate increased by factor” value (CLO pre-treatment compared with untreated skin) was 4.1, the “permeation rate increased by factor” value (HC-pre-treatment compared with untreated skin) was 3.8 and the “permeation rate increased by factor” value (MOM pre-treatment compared with untreated skin) was 2.9. For the same molecule, the “skin penetration (skin concentration) enhanced” value [1] was “at least 10%”.
